Source: patent US20120196858A1, “METHOD OF PROMOTING APOPTOSIS AND INHIBITING METASTASIS” (Poniard Pharmaceuticals ,Inc., priority 2009, published 2012)

Columns and labels:
4T1 tumors = test: Orthotopic 4T1 breast carcinoma model (breast fat pad)
Experimental: Immunohistochemistry: For the detection of apoptosis, sections (7 μm) were analyzed using a terminal deoxynucleotidyl transferase dUTP nick end labeling (TUNEL) kit (Roche). For CD45 staining, sections (7 μm) were fixed in 4% paraformaldehyde, rinsed in PBS, and blocked with a solution of PBS containing 5% BSA, 1% goat serum and 0.1% Triton X. FITC-conjugated anti-CD45 antibodies (Invitrogen) at 1 μg/ml in 5% BSA and PBS were incubated for 2 hours. FITC-conjugated IgG2b isotype antibodies (Invitrogen) at the same concentration were used as a negative control. […] Images were sequentially captured at 40× (UPLFL objective, 1.3 NA; Olympus) using a monochrome charge-coupled camera (ORCA ER; Hamamatsu), an inverted microscope (IX51; Olympus), and Slidebook software (v5.0, Intelligent Imaging). Images were pseudo-colored, overlaid, and merged using Photoshop CS3 (Adobe). Fluorescence quantitation was performed using Image J (v1.43).
Orthotopic breast cancer models: One million 4T1 or MDA-MB-231 cells in 10 μl PBS were injected into the T4 mammary fat pad of 8-10 week old mice using a Hamilton syringe. […] Tumors were measured every 3-4 days with digital vernier calipers and tumor volume (mm^3) was calculated using the formula: V=axb^2/2 (a=length, mm; b=width, m) Body weight was measured weekly to assess toxicity. Lungs, spleen, and primary tumors were surgically removed and weighed.
For 4T1 tumor metastasis analyses, lungs were rinsed in PBS, dorsal and ventral fluorescent images acquired using the OV100 Small Animal Imaging System (Olympus). For all images, a common threshold for mCherry fluorescence was set and lung metastatic burden was calculated by determining the average integrated pixel density for micro-tumors present in each lung using Image J software. Metastatic tumor burden (number of metastatic lesion or mean pixel volume) was determined and groups (Negligible, Moderate, and High) were separated based upon numbers distribution. After imaging, lungs were fixed in Bouin's solution (Sigma), paraffin embedded, sectioned, and stained with hematoxylin and eosin (H&E) for histological evaluation. Images were acquired using a differential interference contrast-equipped Olympus IX81 inverted microscope and an Olympus DP71 digital color camera using Slidebook (v5.0) software. […] Lungs were resected, embedded in OCT, and frozen in liquid nitrogen.

MDA-MB-231 cells = test: Experimental metastasis assay (tail vein injection); format: in vivo, nude mice; settings: 150 mg/kg p.o. pre-administered; 1 and 6 h
Experimental: To determine experimental metastasis burden, lungs were removed 1 and 6 h post cell injection, rinsed in PBS, and dorsal plus ventral fluorescent images acquired using OV100 imaging. A common threshold for mCherry fluorescence was set for all images and the total fluorescent lung area was calculated using Image J.

4T1 cells [1] = test: Soft agar colony growth and apoptosis assay; format: cell-based, murine
Experimental: Anchorage-dependent, spheroid, and soft agar cell growth assays: Cells (2×10^5) were plated per 35 mm well under adherent (tissue culture-treated) and non-adherent conditions (poly-HEMA-coated) in 6-well plates (Costar) in growth media. Between 24 and 168 h, all cells were collected, a single cell suspension was prepared by limited trypsin-EDTA treatment, and viable cells were enumerated by trypan blue staining and counting (ViCell XR, Beckman). For spheroid area determination, cells were imaged after 72 h in phase contrast using an Olympus IX51 microscope. Area was calculated using Image J software (version 1.43). For soft agar assays, 48-well plates were coated with a 1:4 mix of 2% agar (EM Science) in 0.2 ml growth media (bottom layer). 5×10^4 cells were plated per well (in triplicate) in a mixture of 0.3% agar in 0.2 ml growth media (top layer). […] After 10 days, colonies were imaged in phase contrast, enumerated by counting 9 fields (3 fields per well), and total area determined using Image J. For all analyses, experimental points were performed in triplicate and were experiments were repeated at least two times.
(§1) Cell pellets were resuspended in 300 p. 1 of PBS containing propidium iodide (PI) (10 μg/ml), DNAse-free RNAse (100 μg/ml, Qiagen), and then incubated at 37° C. with agitation for 1 h. Samples were analyzed by flow cytometry (FACSCalibur, Becton-Dickinson) and cell cycle analyses were performed by ModFit LT3.2 software (Verity software house). Hypodiploid DNA content as a measure of cell apoptosis was detected by PI staining as described ^29. […] Quadrant gates were positioned based on cell autofluorescence (negative) staurosporine-treated (positive) controls. Apoptosis was calculated to be the percent of annexin V-positive cells. In the soft agar assays, apoptosis was quantified by visual inspection of at least 200 cells and was defined as the appearance of membrane blebbing or cell shrinkage. Apoptosis was also detected by appearance of cleaved caspase-3 antibody reactivity in protein lysates by immunoblotting.

[2] = target: T1, ACK1 (activated Cdc42-associated tyrosine kinase 1) (Homo sapiens, UniProt Q07912); test: Millipore KinaseProfiler selectivity screen; format: biochemical
T1 construct: purchased Millipore (KinaseProfiler service)
Experimental: (§2) Baculovirus FAK catalytic domain and in vitro kinase assays: The FAK catalytic domain region (411-686) was generated by polymerase chain reaction using the primers 5′-[…]-3′ 5′-[…]-3′, cloned into pGEX4T as a fusion with GST, and moved into the pAcG2T baculovirus expression vector (Pharmingen, Baculogold). Virus clones were identified by plaque assays and amplified. For protein expression, SF9 cells were transduced at a multiplicity of infection of 2-5 pfu/cell and cultured at 27° C. for 48 h. Glutathione agarose affinity chromatography were used to purify GST-FAK (411-686) followed by size fractionation using hiload 16/60 Superdex chromatography (GE Healthcare). Protein was concentrated and stored frozen in 50 mM Tris pH 8.0, 150 mM NaCl, 1 mM Na orthovanadate, 0.5 mM EDTA, 0.5 mM EGTA, 0.1% β-mercaptoethanol, and 20% glycerol. Purity was estimated at >90% by SDS-PAGE. GST-FAK in vitro kinase activity was measured and compared to His-tagged FAK 411-686 (Millipore) using the K-LISA screening kit (Calbiochem) and poly(Glu:Tyr) (4:1) copolymer (P0275, Sigma) as a substrate immobilized on microtiter plates. […] Serial diluted compounds at ½-Log concentrations (starting at 1 μM) were tested in triplicate. Substrate phosphorylation was measured using horseradish peroxidase-conjugated anti-pTyr antibodies (PY20, Santa Cruz Biotechnology) with spetrophotometic color quantitation. IC50 values were determined using the Hill-Slope Model. Kinase selectivity profiling was performed by using the KinaseProfiler service (Millipore).

FAK = target: T2, FAK (Homo sapiens, UniProt Q05397); test: Millipore KinaseProfiler selectivity screen; format: biochemical
T2 construct: purchased Millipore (KinaseProfiler service)
T2 sequence (Q05397 whole entry): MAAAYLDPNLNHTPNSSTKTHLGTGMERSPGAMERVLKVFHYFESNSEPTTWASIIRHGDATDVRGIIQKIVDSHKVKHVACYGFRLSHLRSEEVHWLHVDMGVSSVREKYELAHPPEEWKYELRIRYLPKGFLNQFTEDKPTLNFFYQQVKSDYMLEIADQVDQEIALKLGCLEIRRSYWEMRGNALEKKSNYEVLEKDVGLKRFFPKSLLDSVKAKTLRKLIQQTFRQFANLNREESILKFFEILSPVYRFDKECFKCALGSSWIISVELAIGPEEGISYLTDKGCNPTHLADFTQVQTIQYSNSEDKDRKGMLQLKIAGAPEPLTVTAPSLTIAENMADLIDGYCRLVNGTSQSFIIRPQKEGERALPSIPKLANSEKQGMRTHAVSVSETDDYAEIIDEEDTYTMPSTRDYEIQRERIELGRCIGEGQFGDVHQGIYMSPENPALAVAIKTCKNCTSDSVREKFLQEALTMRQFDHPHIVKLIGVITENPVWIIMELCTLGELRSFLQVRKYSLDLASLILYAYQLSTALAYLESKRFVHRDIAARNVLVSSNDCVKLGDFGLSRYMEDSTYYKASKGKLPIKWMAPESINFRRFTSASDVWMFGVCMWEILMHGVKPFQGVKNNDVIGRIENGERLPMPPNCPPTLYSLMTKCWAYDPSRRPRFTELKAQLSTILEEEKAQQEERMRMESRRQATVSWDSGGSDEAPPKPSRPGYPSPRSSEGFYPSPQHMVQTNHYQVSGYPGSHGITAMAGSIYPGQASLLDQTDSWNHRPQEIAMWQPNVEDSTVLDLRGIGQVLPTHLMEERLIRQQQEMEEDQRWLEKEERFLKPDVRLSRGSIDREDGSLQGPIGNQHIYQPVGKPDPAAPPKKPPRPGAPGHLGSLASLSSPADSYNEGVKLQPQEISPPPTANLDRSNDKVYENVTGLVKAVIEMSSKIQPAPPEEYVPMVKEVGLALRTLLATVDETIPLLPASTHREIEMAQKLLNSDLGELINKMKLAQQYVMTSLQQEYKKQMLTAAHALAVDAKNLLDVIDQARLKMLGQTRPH
Experimental: as §2

insulin receptor (IR) = target: T3, insulin receptor (IR) (Homo sapiens, UniProt P06213); test: Millipore KinaseProfiler selectivity screen; format: biochemical; settings: read-out: kinase inhibition
T3 construct: purchased Millipore (KinaseProfiler service)
T3 sequence (P06213 28-1382): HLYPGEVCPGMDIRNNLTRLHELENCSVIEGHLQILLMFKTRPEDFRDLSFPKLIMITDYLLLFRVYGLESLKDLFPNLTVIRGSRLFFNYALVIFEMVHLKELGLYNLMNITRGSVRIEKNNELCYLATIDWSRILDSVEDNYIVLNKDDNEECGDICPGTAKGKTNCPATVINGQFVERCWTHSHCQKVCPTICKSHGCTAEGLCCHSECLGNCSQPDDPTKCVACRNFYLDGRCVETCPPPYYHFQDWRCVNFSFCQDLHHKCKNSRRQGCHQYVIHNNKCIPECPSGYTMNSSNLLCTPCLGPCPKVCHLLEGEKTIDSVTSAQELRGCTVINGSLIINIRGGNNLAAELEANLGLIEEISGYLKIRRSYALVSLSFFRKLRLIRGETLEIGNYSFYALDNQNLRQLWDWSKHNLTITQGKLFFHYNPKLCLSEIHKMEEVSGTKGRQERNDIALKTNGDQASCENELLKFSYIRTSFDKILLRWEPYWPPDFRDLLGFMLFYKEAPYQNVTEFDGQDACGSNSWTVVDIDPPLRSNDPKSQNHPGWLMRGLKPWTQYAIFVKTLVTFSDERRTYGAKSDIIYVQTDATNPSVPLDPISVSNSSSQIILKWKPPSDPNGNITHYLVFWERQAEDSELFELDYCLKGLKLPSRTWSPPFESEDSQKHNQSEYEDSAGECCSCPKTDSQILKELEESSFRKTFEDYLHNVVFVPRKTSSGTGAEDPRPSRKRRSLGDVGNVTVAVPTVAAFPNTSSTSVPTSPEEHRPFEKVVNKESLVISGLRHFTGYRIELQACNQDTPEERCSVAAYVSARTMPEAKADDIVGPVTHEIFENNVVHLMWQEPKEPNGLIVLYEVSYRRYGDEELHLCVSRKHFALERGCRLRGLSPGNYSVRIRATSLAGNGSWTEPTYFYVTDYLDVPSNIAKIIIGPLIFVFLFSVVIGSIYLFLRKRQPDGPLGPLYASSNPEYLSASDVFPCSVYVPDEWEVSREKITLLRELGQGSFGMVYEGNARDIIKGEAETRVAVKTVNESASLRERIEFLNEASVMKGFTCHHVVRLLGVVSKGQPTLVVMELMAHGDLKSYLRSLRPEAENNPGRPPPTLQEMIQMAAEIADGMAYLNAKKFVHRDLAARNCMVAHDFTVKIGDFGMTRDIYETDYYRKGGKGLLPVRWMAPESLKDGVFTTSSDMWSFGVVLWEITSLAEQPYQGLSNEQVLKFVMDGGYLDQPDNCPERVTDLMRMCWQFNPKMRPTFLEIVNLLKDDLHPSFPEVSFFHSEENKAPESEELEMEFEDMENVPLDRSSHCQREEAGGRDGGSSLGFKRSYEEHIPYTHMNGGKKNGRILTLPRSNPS
Experimental: as §2

[3] = target: T4, TrkA (tropomyosin-related kinase A) (Homo sapiens, UniProt P04629); test: Millipore KinaseProfiler selectivity screen; format: biochemical
T4 construct: purchased Millipore (KinaseProfiler service)
T4 sequence (P04629 33-796): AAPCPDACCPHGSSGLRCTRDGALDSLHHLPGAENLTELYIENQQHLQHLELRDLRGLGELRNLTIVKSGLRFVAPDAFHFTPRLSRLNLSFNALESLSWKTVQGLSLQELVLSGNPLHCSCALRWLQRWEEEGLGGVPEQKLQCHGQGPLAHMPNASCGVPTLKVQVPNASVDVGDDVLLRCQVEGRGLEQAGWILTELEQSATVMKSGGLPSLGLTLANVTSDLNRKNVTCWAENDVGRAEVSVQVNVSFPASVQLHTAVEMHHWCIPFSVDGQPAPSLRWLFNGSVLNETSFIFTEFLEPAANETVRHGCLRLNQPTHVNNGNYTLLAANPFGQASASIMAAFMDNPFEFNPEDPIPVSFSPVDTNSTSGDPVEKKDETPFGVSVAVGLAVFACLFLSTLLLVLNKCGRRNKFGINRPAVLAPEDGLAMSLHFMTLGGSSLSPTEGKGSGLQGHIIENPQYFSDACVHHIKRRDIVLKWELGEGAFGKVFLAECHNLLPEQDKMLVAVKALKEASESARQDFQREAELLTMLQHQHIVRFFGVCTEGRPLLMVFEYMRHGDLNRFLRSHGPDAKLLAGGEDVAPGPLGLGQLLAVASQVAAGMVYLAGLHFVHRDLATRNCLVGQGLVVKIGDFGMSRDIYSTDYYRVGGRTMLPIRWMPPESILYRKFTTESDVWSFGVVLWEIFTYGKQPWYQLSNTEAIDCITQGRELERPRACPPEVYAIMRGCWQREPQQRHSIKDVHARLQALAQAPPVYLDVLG
Experimental: as §2

[4] = target: T5, CDK2 (cyclin-dependent kinase 2)/cyclin A (Homo sapiens, UniProt P24941); test: Millipore KinaseProfiler selectivity screen; format: biochemical
T5 construct: purchased Millipore (KinaseProfiler service)
Experimental: as §2

[5] = target: T6, Flt3 (FMS-like tyrosine kinase 3) (Homo sapiens, UniProt P36888); test: Millipore KinaseProfiler selectivity screen; format: biochemical
T6 construct: purchased Millipore (KinaseProfiler service)
T6 sequence (P36888 27-993): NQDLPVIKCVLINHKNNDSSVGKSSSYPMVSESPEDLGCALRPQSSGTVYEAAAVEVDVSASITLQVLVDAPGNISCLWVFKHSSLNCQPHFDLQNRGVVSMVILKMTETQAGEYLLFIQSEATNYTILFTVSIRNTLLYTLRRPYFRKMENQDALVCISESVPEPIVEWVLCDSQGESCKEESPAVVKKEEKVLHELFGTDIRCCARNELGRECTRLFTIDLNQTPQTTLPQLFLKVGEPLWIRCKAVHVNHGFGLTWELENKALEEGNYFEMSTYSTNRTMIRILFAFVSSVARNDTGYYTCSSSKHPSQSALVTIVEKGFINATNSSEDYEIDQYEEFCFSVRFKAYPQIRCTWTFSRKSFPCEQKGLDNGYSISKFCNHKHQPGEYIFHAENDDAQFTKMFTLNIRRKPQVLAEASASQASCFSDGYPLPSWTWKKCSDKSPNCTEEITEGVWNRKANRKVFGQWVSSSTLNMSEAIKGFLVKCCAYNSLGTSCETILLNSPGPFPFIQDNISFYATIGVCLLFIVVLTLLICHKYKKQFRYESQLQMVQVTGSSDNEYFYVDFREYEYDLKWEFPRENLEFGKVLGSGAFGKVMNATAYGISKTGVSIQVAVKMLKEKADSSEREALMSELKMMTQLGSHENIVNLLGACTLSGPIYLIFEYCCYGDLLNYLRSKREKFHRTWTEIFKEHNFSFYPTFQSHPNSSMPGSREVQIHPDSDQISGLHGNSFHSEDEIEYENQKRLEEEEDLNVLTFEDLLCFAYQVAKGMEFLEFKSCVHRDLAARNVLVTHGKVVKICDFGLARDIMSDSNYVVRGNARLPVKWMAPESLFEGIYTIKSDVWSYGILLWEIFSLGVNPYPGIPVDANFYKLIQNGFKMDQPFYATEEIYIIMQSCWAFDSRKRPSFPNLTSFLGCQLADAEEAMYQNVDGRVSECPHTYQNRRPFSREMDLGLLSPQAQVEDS
Experimental: as §2

Aurora-A = target: T7, Aurora-A (Homo sapiens, UniProt O14965); test: Millipore KinaseProfiler selectivity screen; format: biochemical; settings: read-out: kinase inhibition
T7 construct: purchased Millipore (KinaseProfiler service)
T7 sequence (O14965 whole entry): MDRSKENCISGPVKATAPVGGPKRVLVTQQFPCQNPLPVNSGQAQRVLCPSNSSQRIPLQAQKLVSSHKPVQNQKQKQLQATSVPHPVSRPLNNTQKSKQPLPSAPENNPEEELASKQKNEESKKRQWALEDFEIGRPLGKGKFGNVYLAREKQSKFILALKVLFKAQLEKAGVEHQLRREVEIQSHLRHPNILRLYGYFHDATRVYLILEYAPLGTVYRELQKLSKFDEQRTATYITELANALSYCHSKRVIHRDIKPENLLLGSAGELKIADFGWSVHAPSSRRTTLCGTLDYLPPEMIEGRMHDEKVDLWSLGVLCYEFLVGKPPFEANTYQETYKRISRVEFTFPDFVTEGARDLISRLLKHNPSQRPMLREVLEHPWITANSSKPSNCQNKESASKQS
Experimental: as §2

[6] = target: T8, Lck (lymphocyte-specific protein tyrosine kinase) (Homo sapiens, UniProt P06239); test: Millipore KinaseProfiler selectivity screen; format: biochemical
T8 construct: purchased Millipore (KinaseProfiler service)
T8 sequence (P06239 whole entry): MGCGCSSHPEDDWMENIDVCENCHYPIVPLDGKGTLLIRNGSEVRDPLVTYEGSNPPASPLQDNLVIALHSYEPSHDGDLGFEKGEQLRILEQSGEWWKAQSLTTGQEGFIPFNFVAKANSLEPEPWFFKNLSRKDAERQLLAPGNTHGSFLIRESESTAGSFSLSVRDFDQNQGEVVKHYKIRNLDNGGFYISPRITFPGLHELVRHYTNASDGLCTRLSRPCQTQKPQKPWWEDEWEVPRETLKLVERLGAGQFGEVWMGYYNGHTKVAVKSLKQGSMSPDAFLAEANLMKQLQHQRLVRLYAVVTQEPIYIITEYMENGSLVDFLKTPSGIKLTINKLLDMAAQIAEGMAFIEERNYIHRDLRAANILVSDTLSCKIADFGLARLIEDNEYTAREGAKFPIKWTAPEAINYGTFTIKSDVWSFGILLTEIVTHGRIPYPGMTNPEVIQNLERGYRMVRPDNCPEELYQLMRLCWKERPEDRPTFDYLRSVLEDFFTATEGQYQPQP
Experimental: as §2

4T1 cells [7] = test: Annexin V binding by flow cytometry; format: cell-based, murine; settings: 24 h
Experimental: as §1

4T1 cells [8] = test: Cell adhesion to fibronectin; format: cell-based, murine
[9] = 0.5 mg/ml ad libitum in drinking water
[10] = 150 mg/kg p.o. b.i.d. vs vehicle
[11] = 150 mg/kg p.o., b.i.d., 15 days
[12] = oral, 4T1 and MDA-MB-231 orthotopic models

## CNC(=O)c1ccccc1Nc1cc(Nc2ccc(N3CCOCC3)cc2OC)ncc1C(F)(F)F [PND-1186]
4T1 tumors; [9]
  average concentration in plasma: 1.0 µM
  average concentration in tumors: 0.52 µg/g
  tumor growth and tumoral FAK-p130Cas phosphorylation: significantly decreased tumor growth and tumoral FAK-p130Cas phosphorylation
4T1 tumors; 150 mg/kg
  decrease in CD45 tumor-associated staining: 2.8 fold
4T1 tumors; 150 mg/kg p.o. b.i.d.
  tumor vasculature (anti-CD31 staining): no major vascular differences
4T1 tumors; [10]
  increase of TUNEL staining in breast fat pad tumors: 2.8 fold
  tumor volume by Day 7: significantly reduced tumor volume
4T1 tumors; 150 mg/kg p.o. b.i.d., 16 days
  reduction of final tumor weight: 3.1 fold
  total body weight: without affects on total body weight
4T1 tumors; 150 mg/kg p.o. bid
  orthotopic and syngeneic breast carcinoma tumor growth and spontaneous metastasis to lungs: significantly inhibited
4T1 tumors; [11]
  lung metastases by H&E staining of lung sections: detectable 4T1 lung metastases in control but not PND-1186-treated mice
  mice with high lung metastatic burden: no mice with a high metastatic burden
  mice with negligible lung metastases: 7/12
4T1 tumors; ad libitum PND-1186
  tumor histology: necrotic regions at the tumor core, increased TUNEL staining, and decreased leukocyte infiltrate
4T1 tumors; ad libitum oral
  FAK pY397 and p130Cas pY410 phosphorylation in primary tumors: sufficient to inhibit both FAK pY397 and p130Cas pY410 phosphorylation
  mice with negligible to moderate lung metastatic burden: 13/15
  pY118 paxillin phosphorylation in tumors: inhibited pY118 paxillin phosphorylation
  pY416 Src, pY402 Pyk2, pS473 Akt, pT308 Akt phosphorylation in tumors: not pY416 Src nor pY402 Pyk2, pS473 Akt, or pT308 Akt phosphorylation
  spleen size: normal size
4T1 tumors; ad libitum oral, Day 22
  inhibition of final tumor mass: > 1.8 fold
  toxicity or weight loss: without toxicity or weight loss
4T1 tumors; mice with syngeneic 4T1 tumors
  tumor-associated inflammatory cell infiltration and splenomegaly: significantly decreased tumor-associated inflammatory cell infiltration and splenomegaly
4T1 tumors; mouse, in vivo
  tumor-associated splenomegaly: reduced tumor-associated splenomegaly
4T1 tumors; [12]
  anti-tumor and anti-metastatic effects: significant anti-tumor and anti-metastatic effects
  tolerability of oral dosing: without animal morbidity, death or weight loss
4T1 tumors; tumor-bearing PND-1186-treated mice
  spleen appearance: healthy and indistinguishable from non-treated, non-tumor bearing mice
MDA-MB-231 cells
  accumulation of tumor cells in the lungs: significantly inhibited the accumulation of tumor cells in the lungs
4T1 cells [1]; 0.2 μM, soft agar
  4T1 cell apoptosis (membrane blebbing and cell shrinkage): > 50%
4T1 cells [1]; 10 days, dose-dependent
  total number and size of soft agar colonies: inhibited both the total number and size
4T1 cells [1]; Mus musculus, 4T1, 240 h, 0.2 μM, 10 days, read-out: inhibition of soft agar colony size
  inhibition at 0.2 µM: 77%
[2]
  inhibition at 1 µM: > 50%
FAK; 0.1 μM PND-1186
  kinase inhibition specificity: displayed specificity for FAK as well as Flt3
FAK; 1 μM PND-1186
  remaining kinase activity: negligible activity
Insulin receptor (IR)
  inhibition at 1 µM: > 50%
[3]
  inhibition at 1 µM: > 50%
[4]
  inhibition at 1 µM: > 50%
[5]; 0.1 μM PND-1186
  kinase inhibition specificity: displayed specificity for FAK as well as Flt3
[5]; 1 μM PND-1186
  remaining kinase activity: negligible activity
Aurora-A
  inhibition at 1 µM: > 50%
[6]
  inhibition at 1 µM: > 50%
4T1 cells [7]; 0.1 to 0.4 μM
  annexin V positive staining, suspended cells: 50-60%
4T1 cells [7]; up to 1.0 μM
  annexin V-positive cells, adherent conditions: did not increase
4T1 cells [8]
  effect on 4T1 cell adhesion to fibronectin: did not affect 4T1 cell adhesion to fibronectin
